The subject of assay [1] is CD8-MerTK in Ba/F3-CDM cells. Kind of assay: In cell MER kinase assay, Ba/F3-CDM cell proliferation without IL-3 (Celltiter-Glo). Format: cell-based, murine. Conditions: 48 hours compound treatment, read-out: Cell growth inhibition (GI50). An outline of the steps: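 Ba/F3 cells, IL-3-dependent, transfected with CD8-MerTK and grown without IL-3 in DMEM/10% FBS. IL-3-supplemented Ba/F3 cells run in parallel as a cytotoxicity control.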
(In general: ATP-based viability assays read luminescence as a measure of living cells.)

Assay [2] addresses human c-MER catalytic domain (Homo sapiens (Human), UniProt Q12866). Nature of the assay: LanthaScreen TR-FRET kinase assay, c-MER. Conditions: read-out: Mer TK inhibition (IC50); Biochemical IC50, TR-FRET, 10 uM ATP. A general note: TR-FRET usually uses a lanthanide donor and a delayed reading to cut background.

For ten molecules, GI50 and IC50 results are on record in patent US10125118B2, “Heteroaryl compounds and their use as therapeutic drugs” (Dong-A Socio Holdings Co., Ltd., priority 2015, dated 2018).

The term GI50 denotes the concentration at which growth is held to half of that of the control. By IC50 is commonly meant the midpoint of a concentration-inhibition curve.

The structures appear in SMILES notation. Where only a bound is given, the exact number is not on record here.

human c-MER catalytic domain, sequence (Q12866 587-858): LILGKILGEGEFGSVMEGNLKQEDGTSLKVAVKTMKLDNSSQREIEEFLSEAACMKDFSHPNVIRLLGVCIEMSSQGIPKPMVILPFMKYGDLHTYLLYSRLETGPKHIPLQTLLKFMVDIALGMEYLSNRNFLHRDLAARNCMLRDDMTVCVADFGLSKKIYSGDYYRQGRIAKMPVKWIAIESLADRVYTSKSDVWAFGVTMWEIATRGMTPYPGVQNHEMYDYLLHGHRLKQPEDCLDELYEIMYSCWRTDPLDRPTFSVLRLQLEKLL

Regarding `Cn1cc(-c2cnc(N)c(C(=O)N[C@H]3COC[C@@H]3OCc3ccc(-c4ccc(CN5CCN(CCO)CC5)cc4)cc3)c2)cn1` [Example 451, 2-amino-N-((3S,4R)-4-((4′-((4-(2-hydroxyethyl)piperazin-1-yl)methyl)-[1,1′-biphenyl]-4-yl)methoxy)tetrahydrofuran-3-yl)-5-(1-methyl-1H-pyrazol-4-yl)nicotinamide], the GI50 in assay [1] was below 100 nM. The IC50 in assay [2] was below 10 nM.

`Cc1ccc(CO[C@H]2CCC[C@@H]2NC(=O)c2cc(-c3ccc(CN4CCC(N5CCCC5)CC4)c(F)c3)cnc2N)cc1C` [Example 325, 2-amino-N-((1S,2S)-2-((3,4-dimethylbenzyl)oxy)cyclopentyl)-5-(3-fluoro-4-((4-(pyrrolidin-1-yl)piperidin-1-yl)methyl)phenyl)nicotinamide]: the GI50 in assay [1] was above 1000 nM. For the same molecule, the IC50 in assay [2] is below 10 nM.

For `Cc1ccc(CO[C@H]2CCC[C@@H]2NC(=O)c2cc(-c3ccc(CN4CCC(O)CC4)cc3)cnc2N)cc1C` [Example 328, 2-amino-N-((1S,2S)-2-((3,4-dimethylbenzyl)oxy)cyclopentyl)-5-(4-((4-hydroxypiperidin-1-yl)methyl)phenyl)nicotinamide], the GI50 in assay [1] lay in the range of 500 to 1000 nM. In addition, in assay [2], the IC50 was below 10 nM.

Take `CN1CCN(Cc2ccc(-c3ccc(CO[C@H]4CN(C)C[C@@H]4NC(=O)c4cc(-c5cnn(C)c5)cnc4N)cc3)cc2C(F)(F)F)CC1` [Example 437, 2-amino-5-(1-methyl-1H-pyrazol-4-yl)-N-((3S,4S)-1-methyl-4-((4′-((4-methylpiperazin-1-yl)methyl)-3′-(trifluoromethyl)-[1,1′-biphenyl]-4-yl)-methoxy)pyrrolidin-3-yl)nicotinamide]: in assay [1], the GI50 is below 100 nM. The IC50 in assay [2] is below 10 nM.

Consider `CN1CCN(Cc2ccc(-c3ccc(CO[C@H]4CCC[C@@H]4NC(=O)c4cc(-c5cnn(C6CCOCC6)c5)cnc4N)cc3)cc2)CC1` [Example 380], for which the GI50 in assay [1] was below 100 nM. The IC50 in assay [2] was below 10 nM.

Take `CCc1cc(CO[C@H]2CNC[C@@H]2NC(=O)c2cc(-c3ccc(N(C)C)cc3)cnc2N)ccc1C` [Example 405, 2-amino-5-(4-(dimethylamino)phenyl)-N-((3S,4S)-4-((3-ethyl-4-methylbenzyl)oxy)pyrrolidin-3-yl)nicotinamide]: the GI50 in assay [1] is 100 to 500 nM. Also, in assay [2], the concentration for half-maximal inhibition (IC50) was below 10 nM.

With `C[C@H](c1ccc(-c2ccc(CO[C@H]3CCC[C@@H]3NC(=O)c3cc(-c4ccc(F)nc4)cnc3N)cc2)cc1)N1CCN(CCO)CC1` [Example 227, 6-amino-6′-fluoro-N-((1S,2S)-2-((4′-((R)-1-(4-(2-hydroxyethyl)-piperazin-1-yl)ethyl)-[1,1′-biphenyl]-4-yl)methoxy)cyclopentyl)-[3,3′-bipyridine]-5-carboxamide], the GI50 in assay [1] was below 100 nM. The IC50 in assay [2] is below 10 nM.

Regarding `CC(c1ccc(-c2ccc(CO[C@H]3CN(C)C[C@@H]3NC(=O)c3cc(-c4cnn(C)c4)cnc3N)cc2)cc1)N1CCN(C)CC1` (stereo partly drawn) [Example 439, 2-amino-5-(1-methyl-1H-pyrazol-4-yl)-N-((3S,4S)-1-methyl-4-((4′-(1-(4-methylpiperazin-1-yl)ethyl)-[1,1′-biphenyl]-4-yl)methoxy)pyrrolidin-3-yl)-nicotinamide], the GI50 in assay [1] fell in the range of 100 to 500 nM. For the same molecule, the IC50 in assay [2] was below 10 nM.

As for `CN(C)c1ccc(-c2ccc(CO[C@H]3CCC[C@@H]3NC(=O)c3cc(-c4cnn(C)c4)cnc3N)cc2)cc1` [Example 137, 2-amino-N-((1S,2S)-2-((4′-(dimethylamino)-[1,1′-biphenyl]-4-yl)methoxy)cyclopentyl)-5-(1-methyl-1H-pyrazol-4-yl)nicotinamide], the 50% growth inhibitory concentration (GI50) in assay [1] is below 100 nM. Moreover, the IC50 in assay [2] was below 10 nM.

With `CN1CCN(Cc2ccc(-c3ccc(CO[C@H]4CCC[C@@H]4NC(=O)c4cc(-c5ccc(CO)cc5)cnc4N)cc3)cc2)CC1` [Example 369, 2-amino-5-(4-(hydroxymethyl)phenyl)-N-((1S,2S)-2-((4′-((4-methylpiperazin-1-yl)methyl)-[1,1′-biphenyl]-4-yl)methoxy)cyclopentyl)nicotinamide], the concentration for 50% growth inhibition (GI50) in assay [1] was below 100 nM. The IC50 in assay [2] was below 10 nM.
